Assay results from ChEMBL document CHEMBL1201862, “PubChem BioAssay data set” (2004).
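Test compounds were applied to cells in 96-well plates for 48 hours at 5 doses. Here, GI50 denotes the concentration required for 50% inhibition of growth.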 Activity calls are given as the source filed them. Rule as the data show it: active = GI50 up to about 1.1 µM and inactive = higher.

Legend:
Test in all cases: DTP human tumour cell line panel, 48 h
DU-145 = system: DU-145
M14 = system: M14
SNB-75 = system: SNB-75
A549 = system: A549
OVCAR-4 = system: OVCAR-4
HCT-116 = system: HCT-116
HOP-92 = system: HOP-92
UACC-257 = system: UACC-257
MOLT-4 = system: MOLT-4
TK-10 = system: TK-10
RPMI-8226 = system: RPMI-8226
SF-539 = system: SF-539
MDA-MB-435 = system: MDA-MB-435
K562 = system: K562
NCI-H23 = system: NCI-H23
NCI-H226 = system: NCI-H226
SF-268 = system: SF-268
LOX IMVI = system: LOX IMVI
SK-MEL-2 = system: SK-MEL-2
A498 = system: A498

| SMILES | GI50 (DU-145) | GI50 (M14) | GI50 (SNB-75) | GI50 (A549) | GI50 (OVCAR-4) | GI50 (HCT-116) | GI50 (HOP-92) | GI50 (UACC-257) | GI50 (MOLT-4) | GI50 (TK-10) | GI50 (RPMI-8226) | GI50 (SF-539) | GI50 (MDA-MB-435) | GI50 (K562) | GI50 (NCI-H23) | GI50 (NCI-H226) | GI50 (SF-268) | GI50 (LOX IMVI) | GI50 (SK-MEL-2) | GI50 (A498) |
| --- | --- | --- | --- | --- | --- | --- | --- | --- | --- | --- | --- | --- | --- | --- | --- | --- | --- | --- | --- | --- |
| CCN1c2cc(Br)cc3[nH]c(=O)n(c23)CCC1C (stereo not given) | 18.3 µM (inactive) | 17.2 µM (inactive) | 12.3 µM (inactive) | 15.1 µM (inactive) | 20 µM (inactive) | 14.8 µM (inactive) | 1.49 µM (inactive) | 17.4 µM (inactive) | 4.32 µM (inactive) | 15.9 µM (inactive) | 10.3 µM (inactive) | 34.2 µM (inactive) | 4.18 µM (inactive) | 5.58 µM (inactive) | 21.7 µM (inactive) | 15.8 µM (inactive) | 14.2 µM (inactive) | 11.5 µM (inactive) | 15.6 µM (inactive) | 12.3 µM (inactive) |
| Cc1ccc(S(=O)(=O)c2ccsc2NC(=O)c2ccccc2)cc1 | > 100 µM (inactive) | > 100 µM (inactive) | 28.2 µM (inactive) | 48.1 µM (inactive) | 20.9 µM (inactive) | > 100 µM (inactive) | 26.7 µM (inactive) | > 100 µM (inactive) | > 100 µM (inactive) | 36.3 µM (inactive) | > 100 µM (inactive) | 15.4 µM (inactive) | 3.11 µM (inactive) | 2.17 µM (inactive) | > 31.6 µM (inactive) | > 60.4 µM (inactive) | 31.3 µM (inactive) | > 64 µM (inactive) | > 57 µM (inactive) | 45.9 µM (inactive) |
| CCN1CN(c2ccccc2)C2(CCN(CC(CC3OCCO3)c3ccc(F)cc3)CC2)C1=O (stereo not given) | 4.2 µM (inactive) | 5.24 µM (inactive) | 35.2 µM (inactive) | 5.24 µM (inactive) | 13.5 µM (inactive) | 3.36 µM (inactive) | 2.13 µM (inactive) | 2.79 µM (inactive) | 4.99 µM (inactive) | 7.53 µM (inactive) | 10.4 µM (inactive) | 9.53 µM (inactive) | 14.8 µM (inactive) | 32 µM (inactive) | 12.5 µM (inactive) | 13.5 µM (inactive) | 5.19 µM (inactive) | 7.43 µM (inactive) | 20.1 µM (inactive) | 3.63 µM (inactive) |
| CCC(C(=O)c1cccs1)C(O)(C(F)(F)F)C(F)(F)F (stereo not given) | > 100 µM (inactive) | > 100 µM (inactive) | > 100 µM (inactive) | > 100 µM (inactive) | > 100 µM (inactive) | > 100 µM (inactive) | > 100 µM (inactive) | > 100 µM (inactive) | > 100 µM (inactive) | > 100 µM (inactive) | > 100 µM (inactive) | > 100 µM (inactive) | > 100 µM (inactive) | > 100 µM (inactive) | > 100 µM (inactive) | > 100 µM (inactive) | > 100 µM (inactive) | > 100 µM (inactive) | > 100 µM (inactive) | > 100 µM (inactive) |
| COC1=CC(=O)N(C)C(O)C1(C#N)OC1OC(CO)C(O)C(O)C1O (stereo not given) | > 100 µM (inactive) | > 100 µM (inactive) | > 100 µM (inactive) | > 100 µM (inactive) | > 100 µM (inactive) | > 100 µM (inactive) | > 100 µM (inactive) | > 100 µM (inactive) | > 100 µM (inactive) | > 100 µM (inactive) | > 100 µM (inactive) | > 100 µM (inactive) | > 100 µM (inactive) | > 10 µM (inactive) | > 100 µM (inactive) | > 100 µM (inactive) | > 100 µM (inactive) | > 100 µM (inactive) | > 100 µM (inactive) | > 100 µM (inactive) |
| C/C(=C\c1csc(C)n1)[C@@H]1C[C@@H]2O[C@@H]2CCC[C@H](C)[C@H](O)[C@@H](C)C(=O)C(C)(C)[C@@H](O)CC(=O)O1.C/C(=C\c1csc(C)n1)[C@@H]1C[C@@H]2O[C@]2(C)CCC[C@H](C)[C@H](O)[C@@H](C)C(=O)C(C)(C)[C@@H](O)CC(=O)O1 | 0.00604 µM (active) | 0.00266 µM (active) | 0.00384 µM (active) | 0.0039 µM (active) | 1 µM (active) | 0.00173 µM (active) | 0.0698 µM (active) | 0.145 µM (active) | 0.00738 µM (active) | 0.0439 µM (active) | 0.00995 µM (active) | 0.00511 µM (active) | 0.000973 µM (active) | 0.00787 µM (active) | 0.00664 µM (active) | 0.0455 µM (active) | 0.0122 µM (active) | 0.00272 µM (active) | 0.0246 µM (active) | 0.0105 µM (active) |
| CC(=O)OC/C=C(/C=C/CNC1CCCCC1)OC(C)=O | 17 µM (inactive) | 8.28 µM (inactive) | 31.3 µM (inactive) | 47.8 µM (inactive) | 20.8 µM (inactive) | 14.9 µM (inactive) | 12.5 µM (inactive) | 15.1 µM (inactive) | 36.2 µM (inactive) | 16.6 µM (inactive) | 4.83 µM (inactive) | 11.6 µM (inactive) | 16 µM (inactive) | 12.9 µM (inactive) | 16.3 µM (inactive) | 25.9 µM (inactive) | 17.1 µM (inactive) | 19.1 µM (inactive) | 19.8 µM (inactive) | 19.8 µM (inactive) |
| Cc1c(F)c(N)c2c(=O)cc(-c3ccc(N)c(F)c3)oc2c1F [AMINOFLAVONE] | 26.3 µM (inactive) | 57.3 µM (inactive) | 26.7 µM (inactive) | 2.09 µM (inactive) | 18.8 µM (inactive) | 12.1 µM (inactive) | 23 µM (inactive) | 0.298 µM (active) | 46.9 µM (inactive) | 0.258 µM (active) | 14.9 µM (inactive) | 14.9 µM (inactive) | 43.5 µM (inactive) | 0.279 µM (active) | 19.6 µM (inactive) | 3.52 µM (inactive) | 23.1 µM (inactive) | 21.3 µM (inactive) | 40.6 µM (inactive) | 0.366 µM (active) |
| COC1C(OC(=O)/C=C/C=C/C=C/C=C/C(=O)O)CCC2(CO2)C1C1(C)OC1CC=C(C)C (stereo not given) | 35.2 µM (inactive) | 13.6 µM (inactive) | 25.3 µM (inactive) | 18.5 µM (inactive) | 21.1 µM (inactive) | 12.6 µM (inactive) | 27.4 µM (inactive) | 34 µM (inactive) | 25.4 µM (inactive) | 57.9 µM (inactive) | 20.1 µM (inactive) | 42.3 µM (inactive) | 14.6 µM (inactive) | 21.1 µM (inactive) | 25 µM (inactive) | 42.8 µM (inactive) | 34.5 µM (inactive) | 17.4 µM (inactive) | 5.01 µM (inactive) | > 100 µM (inactive) |
| CCCCCCCCCCCCCCCCCCNc1nc(=O)n(C2CC(OP(=O)(O)OCC3OC(n4cc(F)c(=O)[nH]c4=O)CC3O)C(CO)O2)cc1F (stereo not given) | 62.2 µM (inactive) | 19.5 µM (inactive) | 36.9 µM (inactive) | 7.24 µM (inactive) | > 100 µM (inactive) | 47.1 µM (inactive) | 5.33 µM (inactive) | 61 µM (inactive) | 14.7 µM (inactive) | 70.5 µM (inactive) | 11.2 µM (inactive) | 6.67 µM (inactive) | 75.2 µM (inactive) | 26.9 µM (inactive) | 38.8 µM (inactive) | 98.4 µM (inactive) | 12.4 µM (inactive) | 26.1 µM (inactive) | 27.5 µM (inactive) | 13 µM (inactive) |
| C[C@H]1CN[C@@H]2[C@@H](C)[C@H]3[C@@H](C[C@H]4[C@@H]5CC[C@H]6C[C@@H](N)CC[C@]6(C)[C@H]5CC[C@]34C)O[C@@]2(O)C1 | 4.03 µM (inactive) | 2.04 µM (inactive) | 2.44 µM (inactive) | 3.8 µM (inactive) | 3.75 µM (inactive) | 1.29 µM (inactive) | 2.47 µM (inactive) | 1.85 µM (inactive) | 1.69 µM (inactive) | 2.53 µM (inactive) | 2.28 µM (inactive) | 1.27 µM (inactive) | 1.6 µM (inactive) | 1.91 µM (inactive) | 12.9 µM (inactive) | 2.38 µM (inactive) | 1.5 µM (inactive) | 1.73 µM (inactive) | 3.06 µM (inactive) | 0.142 µM (active) |
| CC1=C(N2CC2)C(=O)C(C)=C(N2CC2)C1=O | 0.0469 µM (active) | 0.189 µM (active) | 0.309 µM (active) | 0.112 µM (active) | 0.283 µM (active) | 0.206 µM (active) | 0.17 µM (active) | 0.465 µM (active) | 0.0753 µM (active) | 0.289 µM (active) | 0.201 µM (active) | 0.134 µM (active) | 0.288 µM (active) | 0.254 µM (active) | 0.0412 µM (active) | 0.309 µM (active) | 0.0834 µM (active) | 0.112 µM (active) | 0.306 µM (active) | 0.178 µM (active) |
| CC(=O)OC1(C)CC(C)C(=O)C(C(O)CC2CC(=O)NC(=O)C2)C1 (stereo not given) | 0.0118 µM (active) | 0.0161 µM (active) | 0.504 µM (active) | 0.00729 µM (active) | 0.0184 µM (active) | 0.00743 µM (active) | 0.00172 µM (active) | 0.0262 µM (active) | 0.00444 µM (active) | 0.0859 µM (active) | 0.0118 µM (active) | 0.0145 µM (active) | 0.0148 µM (active) | 0.0178 µM (active) | 0.00807 µM (active) | 0.0448 µM (active) | 0.0329 µM (active) | 0.013 µM (active) | 0.00752 µM (active) | 0.0201 µM (active) |
